This is an account of results in EP4741383A1, “COMPOUND AND USE THEREOF AS ANTI-CANCER DRUG” (Tyligand Bioscience (Shanghai) Limited, priority 2023, dated 2025).

Some results are limits rather than exact numbers.

Type in all cases: biochemical
In one assay the target is T1, SHP1 (Homo sapiens, UniProt P29350).
T1 construct: made in house; host or cells: E. coli
As to the kind of experiment: Tyrosine phosphatase selectivity (pNPP substrate), SHP1. The conditions noted are these: for IC50: SHP1, pNPP substrate; for IC50PTP/IC50SHP2 SHP1: selectivity ratio SHP1 over SHP2. The protocol: (§1) This experiment evaluated the selectivity of the disclosed compounds against tyrosine phosphatases, including SHP1, HePTP, Laforin, LMWPTP, LYP, PTP1B, PRL2, SSU72, VHR, FAP1, STEP, CDC14A, CD45, MEG2, and PP5, all expressed and purified from E. coli.
(§2) Phosphatase activity was measured using p-nitrophenyl phosphate (pNPP) (Fisher Scientific) as the substrate in 50 mM 3,3-dimethylglutaric acid buffer (pH 7.0, containing 1 mM EDTA), with ionic strength adjusted to 0.15 M with NaCl. […] After 10-60 minutes, the reaction was quenched by adding 20 µL of 5 N NaOH. Wells without enzyme were used as controls for correction. The amount of the product, p-nitrophenol, was determined by measuring the absorbance at 405 nm using a Spectra MAX340 microplate spectrophotometer (Molecular Devices), with a molar extinction coefficient of 18000 M^-1cm^-1.
(§3) Data were analyzed using GraphPad Prism software. Dose-response curves were obtained by fitting data using the nonlinear S-curve regression Dose-response-inhibition equation, and IC50 values were calculated.

The target of another assay is T2, HePTP (Homo sapiens, UniProt P35236).
T2 construct: made in house; host or cells: E. coli
T2 sequence (P35236 1-360): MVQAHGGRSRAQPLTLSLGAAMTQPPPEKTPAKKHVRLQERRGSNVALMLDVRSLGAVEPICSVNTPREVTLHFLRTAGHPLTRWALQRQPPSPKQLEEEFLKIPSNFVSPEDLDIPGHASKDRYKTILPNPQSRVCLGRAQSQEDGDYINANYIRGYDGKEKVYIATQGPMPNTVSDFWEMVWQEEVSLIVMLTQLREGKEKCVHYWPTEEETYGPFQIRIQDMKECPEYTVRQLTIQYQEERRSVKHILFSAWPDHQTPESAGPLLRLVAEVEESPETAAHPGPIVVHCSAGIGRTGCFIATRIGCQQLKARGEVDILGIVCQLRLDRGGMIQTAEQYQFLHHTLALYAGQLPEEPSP
As to the kind of experiment: Tyrosine phosphatase selectivity (pNPP substrate), HePTP. Particulars: for IC50: HePTP, pNPP substrate; for IC50PTP/IC50SHP2 HePTP: selectivity ratio HePTP over SHP2. The protocol: as §1, §2, §3

A further assay deals with T3, Laforin (Homo sapiens, UniProt O95278).
T3 construct: made in house; host or cells: E. coli
T3 sequence (O95278 1-331): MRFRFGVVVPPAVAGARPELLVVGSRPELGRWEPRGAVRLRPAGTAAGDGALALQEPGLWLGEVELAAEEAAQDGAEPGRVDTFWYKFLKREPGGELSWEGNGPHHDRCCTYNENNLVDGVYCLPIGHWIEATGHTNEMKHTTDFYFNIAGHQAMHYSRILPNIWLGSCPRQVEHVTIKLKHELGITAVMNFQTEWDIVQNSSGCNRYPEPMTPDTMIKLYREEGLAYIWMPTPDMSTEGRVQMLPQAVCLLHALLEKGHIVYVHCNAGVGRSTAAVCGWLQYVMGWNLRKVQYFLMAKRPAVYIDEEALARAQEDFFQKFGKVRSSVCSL
Kind of assay: Tyrosine phosphatase selectivity (pNPP substrate), Laforin. The conditions noted are these: for IC50: Laforin, pNPP substrate; for IC50PTP/IC50SHP2 Laforin: selectivity ratio Laforin over SHP2. On the procedure: as §1, §2, §3

In another assay the target is T4, PTP1B (Homo sapiens, UniProt P18031).
T4 construct: made in house; host or cells: E. coli
T4 sequence (P18031 1-435): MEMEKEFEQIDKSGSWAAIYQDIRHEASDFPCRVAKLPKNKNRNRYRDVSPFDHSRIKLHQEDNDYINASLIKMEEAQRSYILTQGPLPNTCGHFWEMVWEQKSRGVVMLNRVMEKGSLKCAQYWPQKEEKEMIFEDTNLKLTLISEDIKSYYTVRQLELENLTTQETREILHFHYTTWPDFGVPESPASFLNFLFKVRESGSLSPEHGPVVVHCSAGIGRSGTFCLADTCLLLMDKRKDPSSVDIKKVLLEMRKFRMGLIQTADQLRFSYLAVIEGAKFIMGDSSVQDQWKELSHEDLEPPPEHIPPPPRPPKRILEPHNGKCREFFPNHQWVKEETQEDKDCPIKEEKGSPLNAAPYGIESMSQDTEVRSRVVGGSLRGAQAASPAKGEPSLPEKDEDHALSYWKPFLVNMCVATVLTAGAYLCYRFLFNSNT
Kind of assay: Tyrosine phosphatase selectivity (pNPP substrate), PTP1B. Particulars: for IC50: PTP1B, pNPP substrate; for IC50PTP/IC50SHP2 PTP1B: selectivity ratio PTP1B over SHP2. On the procedure: as §1, §2, §3

Assay [1] deals with T5, FAP1 (Homo sapiens, UniProt Q12923).
T5 sequence (Q12923 2163-2477): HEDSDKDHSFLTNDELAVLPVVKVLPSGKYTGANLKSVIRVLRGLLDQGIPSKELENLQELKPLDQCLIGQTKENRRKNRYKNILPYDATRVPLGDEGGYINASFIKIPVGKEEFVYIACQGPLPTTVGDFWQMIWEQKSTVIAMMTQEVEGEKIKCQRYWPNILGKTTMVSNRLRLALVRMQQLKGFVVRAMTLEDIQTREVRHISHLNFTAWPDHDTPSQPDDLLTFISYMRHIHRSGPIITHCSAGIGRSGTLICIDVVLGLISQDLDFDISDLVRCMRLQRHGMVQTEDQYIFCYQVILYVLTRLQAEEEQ
As to the kind of experiment: Tyrosine phosphatase selectivity (pNPP substrate), FAP1. Particulars: FAP1, pNPP substrate. On the procedure:
as §1, §2, §3

In assay [2] the target is FAP1. The assay is described as above. Particulars: selectivity ratio FAP1 over SHP2. The protocol: as §1, §2, §3

T1 sequence (P29350 whole entry): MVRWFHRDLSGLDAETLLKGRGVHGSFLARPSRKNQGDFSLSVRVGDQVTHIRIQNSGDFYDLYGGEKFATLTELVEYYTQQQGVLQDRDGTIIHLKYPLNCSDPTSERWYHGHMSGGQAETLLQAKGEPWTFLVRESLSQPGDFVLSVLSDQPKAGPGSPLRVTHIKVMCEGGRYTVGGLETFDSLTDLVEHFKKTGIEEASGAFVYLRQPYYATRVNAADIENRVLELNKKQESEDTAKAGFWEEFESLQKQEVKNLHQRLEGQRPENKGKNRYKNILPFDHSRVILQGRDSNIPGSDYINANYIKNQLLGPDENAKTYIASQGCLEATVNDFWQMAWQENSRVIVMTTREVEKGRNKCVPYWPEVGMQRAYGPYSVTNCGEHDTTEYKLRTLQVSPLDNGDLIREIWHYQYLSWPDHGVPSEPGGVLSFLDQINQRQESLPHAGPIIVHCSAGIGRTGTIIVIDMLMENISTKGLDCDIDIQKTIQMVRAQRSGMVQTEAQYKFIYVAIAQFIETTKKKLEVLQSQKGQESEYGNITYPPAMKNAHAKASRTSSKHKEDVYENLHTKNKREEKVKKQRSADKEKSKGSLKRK

One may read the IC50 as the midpoint of a concentration-inhibition curve. Regarding `O=C(Nc1ccc(-c2cc3cc(F)c(-c4nnn[nH]4)cc3n2C2CCC2)cc1)C(=O)Nc1ccc(N2CC3COCC3C2)cc1` (centres unmarked) [Example 114], at SHP1, it took 100 nM to reach half-maximal inhibition (IC50) and the “IC50PTP/IC50SHP2 SHP1” value is given as 1.3. Further, at HePTP, the IC50 amounted to 1060 nM and the “IC50PTP/IC50SHP2 HePTP” value turned out to be 14.7. Moreover, at Laforin, the IC50 was 2440 nM and the “IC50PTP/IC50SHP2 Laforin” value was 33.8. For the same compound, at PTP1B, the IC50 was 470 nM and the “IC50PTP/IC50SHP2 PTP1B” value was 6.5. The compound also returned an IC50 on FAP1 [1] of 1900 nM. In addition, the “IC50PTP/IC50SHP2 FAP1” value at FAP1 [2] is given as 26.3.
Consider `O=C(Nc1ccc(-c2ccsc2)cc1)C(=O)Nc1ccc(-c2cc3ccc(-c4nnn[nH]4)nc3n2C2CCC2)cc1` [Example 129], for which, on SHP1, 700 nM corresponded to half-maximal inhibition (IC50) and the “IC50PTP/IC50SHP2 SHP1” value is reported as 11.9. At HePTP, the IC50 is above 20000 nM and the “IC50PTP/IC50SHP2 HePTP” value was found to be 339.0. Also, at Laforin, the IC50 was above 20000 nM and the “IC50PTP/IC50SHP2 Laforin” value was determined as 339.0. Moreover, on PTP1B, the IC50 worked out at 8500 nM and the “IC50PTP/IC50SHP2 PTP1B” value was found to be 144.1. This compound also showed a half-maximal inhibitory concentration (IC50) at FAP1 [1] of 4200 nM. Further, at FAP1 [2], the “IC50PTP/IC50SHP2 FAP1” value was determined as 71.2.
